Laboratory results as given in patent US20260250320A1, “LIPIDATED PEPTIDE INHIBITORS OF INTERLEUKIN-23 RECEPTOR” (Janssen Pharmaceutica NV, priority 2023, published 2026).
*1 amine or outer side, *2 acyl side, *3 side chain or, on linkers, in order; H or OH if unused. Where a SMILES comes first, the peptide text is derived from it. Bridges are numbered along the chain shown (N, C = ends). Roman numbers before positions name the chains, in order. Side-chain parts run from the residue outwards. [ ]: non-standard residue; d: D form. The star is where a group is joined. ξ: configuration not given here. X22 = O=C(O)CCCCCCCCCCCCCCCCC(=O)N[C@@H](CCC(=O)NCCOCCOCC(=O)NCCCCCOCC(=O)*)C(=O)O; X38 = O=C(O)CCCCCCCCCCCCCCCCC(=O)N[C@@H](CCC(=O)NCCOCCOCC(=O)NCCOCCCCC(=O)*)C(=O)O; X19 = CC(C)(S[*:2])[C@H](N[*:3])C(=O)C[C@@H](Cc1ccc(OCCN)cc1)C(=O)[*:1]; dTrp(7-Me) = Cc1cccc2c(C[C@@H](N)C(=O)O)c[nH]c12; Biotin = O=C1N[C@H]2[C@H](CS[C@H]2CCCCC(=O)*)N1; NH(CH2CH2O)2CH2CH2NMe3+ = C[N+](C)(C)CCOCCOCCN*; Trp(7-Me) = Cc1cccc2c(C[C@H](N)C(=O)O)c[nH]c12; C18 diacid = O=C(O)CCCCCCCCCCCCCCCCC(=O)*; γGlu = O=C(O)[C@H](CCC(=O)[*:2])N[*:1]; 2Nal = N[C@@H](Cc1ccc2ccccc2c1)C(=O)O; AEF = NCCOc1ccc(C[C@H](N)C(=O)O)cc1; 3Pal = N[C@@H](Cc1cccnc1)C(=O)O; Lys(Me) = CNCCCC[C@H](N)C(=O)O; PEG4 = NCCOCCOCCOCCOCCC(=O)O; Pen = CC(C)(S)[C@H](N)C(=O)O; Thp = NC1(C(=O)O)CCOCC1; X1 = C[N+](C)(C)CCCCC*; ξN = NC(=O)CC(N)C(=O)O; AEEA = NCCOCCOCC(=O)O; ξK = NCCCCC(N)C(=O)O; Sar = CNCC(=O)O

Experiments:
IL-23R = molecular target: T1, IL-23R (Homo sapiens, UniProt Q5VWK5); assay: IL23R Reporter Assay; format: cell-based; conditions: HEK293 cells containing IL-23R, IL-12Rβ1 and STAT-inducible firefly luciferase reporter; 10 ng/mL IL-23 (EC90); 5 h
T1 construct: HEK293 cells containing IL-23R, IL-12Rβ1 and a firefly luciferase reporter gene driven by a STAT-inducible promoter (Promega); host or cells: HEK293
T1 sequence (Q5VWK5 24-629): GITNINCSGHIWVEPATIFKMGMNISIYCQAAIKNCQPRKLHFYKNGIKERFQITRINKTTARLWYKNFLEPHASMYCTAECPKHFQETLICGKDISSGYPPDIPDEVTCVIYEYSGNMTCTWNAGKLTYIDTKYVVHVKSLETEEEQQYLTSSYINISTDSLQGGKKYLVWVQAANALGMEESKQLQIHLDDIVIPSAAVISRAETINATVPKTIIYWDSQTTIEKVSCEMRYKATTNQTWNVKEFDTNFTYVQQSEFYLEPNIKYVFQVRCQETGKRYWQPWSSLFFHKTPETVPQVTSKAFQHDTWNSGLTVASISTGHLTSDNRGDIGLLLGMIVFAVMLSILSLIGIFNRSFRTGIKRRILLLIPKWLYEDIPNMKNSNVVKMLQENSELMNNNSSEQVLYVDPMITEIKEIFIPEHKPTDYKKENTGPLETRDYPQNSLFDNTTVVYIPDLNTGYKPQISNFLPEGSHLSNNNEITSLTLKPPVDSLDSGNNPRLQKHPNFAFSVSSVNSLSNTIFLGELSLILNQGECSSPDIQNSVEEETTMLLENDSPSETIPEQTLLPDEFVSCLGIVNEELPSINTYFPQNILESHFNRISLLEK
Method in brief: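 HEK293 cells carrying IL-23R, IL-12Rβ1 and a STAT-driven firefly luciferase reporter (4000 cells/well) received compound, then 10 ng/mL IL-23 solution (EC90), and were incubated for 5 h at 37° C. BioGlo luminescence was normalised to IL-23 alone (0%) and 30 μM control inhibitor (100%). IC50 came from a 4-parameter Hill fit.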

[1] = tested on: IL-23-stimulated phosphorylated STAT3 in peripheral blood mononuclear cells (PBMCs); assay: PBMC pSTAT3 Assay; format: cell-based; conditions: PBMCs from healthy donors; 30 min preincubation with peptide; IL-23 5 ng/mL for 30 min; phospho-STAT3 by MSD
Method in brief: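 Healthy-donor PBMCs expanded 4 days on anti-CD3 with 100 ng/mL IL-1β, starved ~4 h in RPMI-0.1% BSA, preincubated 30 min with peptide, then stimulated 30 min at 37 °C with 5 ng/mL IL-23. Lysate pSTAT3 measured by MSD phospho-STAT panel; IC50 derived.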

Row | IC50 (IL-23R) [µM] | SMILES | IC50 [1] [µM]
1 | 0.05 to 0.5 | CC(=O)NCCCC[C@@H]1NC(=O)[C@H](Cc2c[nH]c3c(C)cccc23)NC(=O)[C@H]([C@@H](C)O)NC(=O)[C@H](CC(N)=O)NC(=O)[C@@H](NC(=O)[C@@H](CCCCNC(=O)COCCOCCNC(=O)COCCOCCNC(=O)CC[C@H](NC(=O)CCCCCCCCCCCCCCCCC(=O)O)C(=O)O)NC(C)=O)C(C)(C)SSC(C)(C)[C@@H](C(=O)N[C@@H](Cc2ccc(OCCN)cc2)C(=O)N[C@@H](Cc2ccc3ccccc3c2)C(=O)NC2(C(=O)N[C@@H](CCC(=O)O)C(=O)N[C@@H](CC(N)=O)C(=O)N[C@@H](Cc3cccnc3)C(=O)N(C)CC(N)=O)CCOCC2)NC1=O [compound 58, MeCO-k(PEG2PEG2gEC18OH)-Pen(3)-N-T-7MeW-K(Ac)-Pen(3)-AEF-2Nal-THP-E-N-3Pya-Sar-CONH2] (Ac-[dK]([AEEA-AEEA-γGlu-C18 diacid])[Pen]NT[Trp(7-Me)]K(Ac)[Pen][AEF][2Nal][Thp]EN[3Pal][Sar]-NH2; disulfide 2-7) | < 0.0005
2 | 0.05 to 0.5 | CC(=O)N[C@H](CCCNC(=N)N)C(=O)N[C@@H]1C(=O)N[C@@H](CC(N)=O)C(=O)N[C@@H]([C@@H](C)O)C(=O)N[C@@H](Cc2c[nH]c3c(C)cccc23)C(=O)NC(CCCCNC(=O)COCCOCCNC(=O)COCCOCCNC(=O)CC[C@H](NC(=O)CCCCCCCCCCCCCCCCC(=O)O)C(=O)O)C(=O)N[C@H](C(=O)N[C@@H](Cc2ccc(OCCN)cc2)C(=O)N[C@@H](Cc2ccc3ccccc3c2)C(=O)NC2(C(=O)N[C@@H](CCC(=O)O)C(=O)N[C@@H](CC(N)=O)C(=O)N[C@@H](Cc3cccnc3)C(=O)N(C)CC(N)=O)CCOCC2)C(C)(C)SSC1(C)C (stereo partly drawn) [compound 59, MeCO-r-Pen(3)-N-T-7MeW-K(PEG2PEG2gEC18OH)-Pen(3)-AEF-2Nal-THP-E-N-3Pya-Sar-CONH2] (Ac-[dR][Pen]NT[Trp(7-Me)][ξK]([AEEA-AEEA-γGlu-C18 diacid])[Pen][AEF][2Nal][Thp]EN[3Pal][Sar]-NH2; disulfide 2-7) | < 0.0005
3 | < 0.05 | CC(=O)NCCCC[C@@H]1NC(=O)[C@H](Cc2c[nH]c3c(C)cccc23)NC(=O)[C@H]([C@@H](C)O)NC(=O)[C@H](CC(N)=O)NC(=O)[C@@H](NC(=O)[C@@H](CCCNC(=N)N)NC(=O)COCCOCCNC(=O)COCCOCCNC(=O)CC[C@H](NC(=O)CCCCCCCCCCCCCCCCC(=O)O)C(=O)O)C(C)(C)SSC(C)(C)[C@@H](C(=O)N[C@@H](Cc2ccc(OCCN)cc2)C(=O)N[C@@H](Cc2ccc3ccccc3c2)C(=O)NC2(C(=O)N[C@@H](CCC(=O)O)C(=O)N[C@@H](CC(N)=O)C(=O)N[C@@H](Cc3cccnc3)C(=O)N(C)CC(N)=O)CCOCC2)NC1=O [compound 60, HOC18gEPEG2PEG2CO-r-Pen(3)-N-T-7MeW-K(Ac)-Pen(3)-AEF-2Nal-THP-E-N-3Pya-Sar-CONH2] ({C18 diacid-γGlu-AEEA-AEEA}-[dR][Pen]NT[Trp(7-Me)]K(Ac)[Pen][AEF][2Nal][Thp]EN[3Pal][Sar]-NH2; disulfide 2-7) | < 0.0005
4 | < 0.05 | CC(=O)NCCCC[C@@H]1NC(=O)[C@H](Cc2c[nH]c3c(C)cccc23)NC(=O)[C@H]([C@@H](C)O)NC(=O)[C@H](CC(N)=O)NC(=O)[C@@H](NC(=O)COCCOCCNC(=O)COCCOCCNC(=O)CC[C@H](NC(=O)CCCCCCCCCCCCCCCCC(=O)O)C(=O)O)C(C)(C)SSC(C)(C)[C@@H](C(=O)N[C@@H](Cc2ccc(OCCN)cc2)C(=O)N[C@@H](Cc2ccc3ccccc3c2)C(=O)NC2(C(=O)N[C@@H](CCC(=O)O)C(=O)N[C@@H](CC(N)=O)C(=O)N[C@@H](Cc3cccnc3)C(=O)N(C)CC(N)=O)CCOCC2)NC1=O [compound 61, HOC18gEPEG2PEG2CO-Pen(3)-N-T-7MeW-K(Ac)-Pen(3)-AEF-2Nal-THP-E-N-3Pya-Sar-CONH2] | < 0.0005
5 | < 0.05 | CC(=O)NCCCC[C@@H]1NC(=O)[C@H](Cc2c[nH]c3c(C)cccc23)NC(=O)[C@H]([C@@H](C)O)NC(=O)[C@H](CC(N)=O)NC(=O)[C@@H](NC(=O)[C@H](CCCCNC(=O)COCCOCCNC(=O)COCCOCCNC(=O)CC[C@H](NC(=O)CCCCCCCCCCCCCCCCC(=O)O)C(=O)O)NC(C)=O)C(C)(C)SSC(C)(C)[C@@H](C(=O)N[C@@H](Cc2ccc(OCCCCC[N+](C)(C)C)cc2)C(=O)N[C@@H](Cc2ccc3ccccc3c2)C(=O)NC2(C(=O)N[C@@H](CCCCNC(C)=O)C(=O)NC(CC(N)=O)C(=O)N[C@@H](Cc3cccnc3)C(=O)N(C)CC(N)=O)CCOCC2)NC1=O (stereo partly drawn) [compound 62, MeCO-K(PEG2PEG2gEC18OH)-Pen(3)-N-T-7MeW-K(Ac)-Pen(3)-TMAPF-2Nal-THP-K(Ac)-3-Pya-Sar-CONH2] (Ac-K([AEEA-AEEA-γGlu-C18 diacid])[Pen]NT[Trp(7-Me)]K(Ac)[Pen]Y(X1)[2Nal][Thp]K(Ac)[ξN][3Pal][Sar]-NH2; disulfide 2-7) | < 0.0005

The remaining lines, values behind:

Row | SMILES | IC50 (IL-23R) [µM] | IC50 [1] [µM]
6 | CC(=O)NCCCC[C@@H]1NC(=O)[C@@H](Cc2c[nH]c3c(C)cccc23)NC(=O)[C@H]([C@@H](C)O)NC(=O)[C@H](CC(N)=O)NC(=O)[C@@H](NC(=O)[C@@H](CCCNC(=N)N)NC(=O)CCOCCOCCOCCOCCNC(=O)CCCC[C@@H]2SC[C@@H]3NC(=O)N[C@@H]32)C(C)(C)SSC(C)(C)[C@@H](C(=O)N[C@@H](Cc2ccc(OCCN)cc2)C(=O)N[C@@H](Cc2ccc3ccccc3c2)C(=O)NC2(C(=O)N[C@@H](CCC(=O)O)C(=O)N[C@@H](CC(N)=O)C(=O)N[C@@H](Cc3cccnc3)C(=O)N(C)CC(=O)N[C@@H](CCCCNC(=O)COCCCCCNC(=O)COCCOCCNC(=O)CC[C@H](NC(=O)CCCCCCCCCCCCCCCCC(=O)O)C(=O)O)C(N)=O)CCOCC2)NC1=O [compound 57, BiotinPEG4CO-r-Pen(3)-N-T-7MeW-K(Ac)-Pen(3)-AEF-2Nal-THP-E-N-3Pya-Sar-K(PEG2PEG2gEC18OH)-CONH2] ({Biotin-PEG4}-[dR][Pen]NT[dTrp(7-Me)]K(Ac)[Pen][AEF][2Nal][Thp]EN[3Pal][Sar]K(X22)-NH2; disulfide 2-7) | < 0.05 | < 0.0005
7 | CC(=O)N[C@@H](CCCCNC(=O)CCCCOCCNC(=O)COCCOCCNC(=O)CC[C@H](NC(=O)CCCCCCCCCCCCCCCCC(=O)O)C(=O)O)C(=O)N[C@@H]1C(=O)N[C@@H](CC(=O)N(C)C)C(=O)N[C@@H]([C@@H](C)O)C(=O)N[C@@H](Cc2c[nH]c3c(C)cccc23)C(=O)N[C@@H](CCCCN(C)C(C)=O)C(=O)N[C@H](C(=O)N[C@@H](Cc2ccc(OCCCCC[N+](C)(C)C)cc2)C(=O)N[C@@H](Cc2ccc3ccccc3c2)C(=O)NC2(C(=O)N[C@@H](CCCCN(C)C(C)=O)C(=O)N[C@@H](CC(N)=O)C(=O)N[C@@H](Cc3cccnc3)C(=O)N(C)CC(N)=O)CCOCC2)C(C)(C)SSC1(C)C [compound 63, MeCO-K(PEG2PEG2gEC18OH)-Pen(3)-N(N(Me)2)-T-7MeW-K(NMeAc)-Pen(3)-TMAPF-2Nal-THP-K(NMeAc)-N-3Pya-Sar-CONH2] (Ac-K(X38)[Pen]D(NMe2)T[Trp(7-Me)][Lys(Me)](Ac)[Pen]Y(X1)[2Nal][Thp][Lys(Me)](Ac)N[3Pal][Sar]-NH2; disulfide 2-7) | ≥ 0.5 | ≥ 0.005
8 | CC(=O)NCCCC[C@@H]1NC(=O)[C@H](Cc2c[nH]c3c(C)cccc23)NC(=O)[C@H]([C@@H](C)O)NC(=O)[C@H](CC(N)=O)NC(=O)[C@@H](NC(C)=O)C(C)(C)SSC(C)(C)[C@@H](C(=O)C[C@@H](Cc2ccc(OCCN)cc2)C(=O)N[C@@H](Cc2ccc3ccccc3c2)C(=O)NC2(C(=O)N[C@@H](CCCCNC(=O)COCCOCCNC(=O)COCCOCCNC(=O)CC[C@H](NC(=O)CCCCCCCCCCCCCCCCC(=O)O)C(=O)O)C(=O)N[C@@H](CC(N)=O)C(=O)N[C@@H](Cc3cccnc3)C(=O)N(C)CC(=O)NCCOCCOCC[N+](C)(C)C)CCOCC2)NC1=O [compound 64, MeCO-Pen(3)-N-T-7MeW-K(Ac)-Pen(3)-AEF-2Nal-THP-K(PEG2PEG2gEC18OH)-N-3Pya-Sar-CONH(PEG3a)] (I: [2Nal][Thp]K([AEEA-AEEA-γGlu-C18 diacid])N[3Pal][Sar]-{NH(CH2CH2O)2CH2CH2NMe3+} / II: Ac-[Pen]NT[Trp(7-Me)]K(Ac); linker I:N-II:1-II:C via X19) | ≥ 0.5 | 0.0005 to 0.005
